# Assay results from patent US6441020B1, “Protein kinase C modulators. W” (priority 1995, dated 2002).
# How the values were obtained:
# Raji cells = details: Irie and Koshimizu 1988; cited from earlier work
# protein kinase C δ = biological target: T1, protein kinase C δ (Homo sapiens, UniProt Q05655); test: [3H]PDBu receptor binding assay, protein kinase C δ
# T1 construct: made in house
# protein kinase C μ = biological target: T2, protein kinase C μ (Homo sapiens, UniProt Q15139); test: [3H]PDBu receptor binding assay, protein kinase C μ
# T2 construct: Successful full-length expression of each isotype was confirmed by immunoblotting; made in house; host or cells: Sf9 or Sf158 insect cells (baculovirus)
# T2 sequence (Q15139 1-912): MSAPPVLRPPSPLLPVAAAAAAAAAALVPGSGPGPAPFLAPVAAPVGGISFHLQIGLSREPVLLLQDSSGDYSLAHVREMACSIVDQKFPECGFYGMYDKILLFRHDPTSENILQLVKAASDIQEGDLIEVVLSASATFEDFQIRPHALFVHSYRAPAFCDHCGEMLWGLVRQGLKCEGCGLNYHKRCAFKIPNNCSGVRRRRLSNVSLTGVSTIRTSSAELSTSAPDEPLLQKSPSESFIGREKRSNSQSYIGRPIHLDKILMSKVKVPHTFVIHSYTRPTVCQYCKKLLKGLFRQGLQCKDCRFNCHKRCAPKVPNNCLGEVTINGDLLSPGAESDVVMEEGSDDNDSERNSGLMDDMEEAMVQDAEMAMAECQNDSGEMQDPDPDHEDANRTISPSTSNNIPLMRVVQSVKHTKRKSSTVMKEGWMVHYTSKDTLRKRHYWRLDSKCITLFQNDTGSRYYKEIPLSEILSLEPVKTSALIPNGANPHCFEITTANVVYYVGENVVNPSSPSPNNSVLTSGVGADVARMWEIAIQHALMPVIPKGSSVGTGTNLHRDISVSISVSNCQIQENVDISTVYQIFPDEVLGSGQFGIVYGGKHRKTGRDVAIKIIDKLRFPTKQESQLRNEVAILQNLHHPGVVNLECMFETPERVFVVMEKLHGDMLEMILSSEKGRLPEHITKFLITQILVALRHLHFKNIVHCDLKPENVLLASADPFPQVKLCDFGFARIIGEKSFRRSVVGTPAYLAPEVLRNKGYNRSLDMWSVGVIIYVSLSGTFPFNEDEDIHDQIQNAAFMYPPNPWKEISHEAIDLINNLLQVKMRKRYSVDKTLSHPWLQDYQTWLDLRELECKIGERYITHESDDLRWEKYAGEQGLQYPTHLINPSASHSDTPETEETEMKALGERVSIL
# Text: (§1) Recombinant protein kinase Cα, β1, γ, ε, η, θ and μ were obtained as crude cell preparations as follows. The protein kinase C isotypes were expressed in Sf9 or Sf158 insect cells using recombinant baculoviruses as described (Patel and Stabel, 1989; Stabel, Schaap and Parker, 1991; Johannes et al., 1994). In the case of the θ isotype, human protein kinase Cθ was cloned in the plasmid vector pFlag-Mac and the protein expressed in E. coli strain DH5. Successful full-length expression of each isotype was confirmed by immunoblotting of infected insect cell or E. coli lysates with isotype-specific antibodies (Marais and Parker, 1989) as described (Liyange et al, 1992). Sf9 or Sf158 cells were infected with recombinant baculovirus isolates containing the specified protein kinase C isotype cDNAs (Parker et al, 1986; Coussens et al, 1986) or a non-protein kinase C-related adenovirus E1 a gene (Patel and Jones, 1990). After 3 days infected and uninfected control cells were collected by centrifugation at 600 RCF for 15 min and frozen. […]
# (§2) The assay was carried out in 0.5 mL polypropylene centrifuge tubes. […] Specific and nonspecific binding values were then determined as described (Driedger and Blumberg, 1980b). […]
# protein kinase Cα = biological target: T3, protein kinase Cα (Bos taurus, UniProt P04409); test: [3H]PDBu receptor binding assay, protein kinase C α
# T3 construct: Successful full-length expression of each isotype was confirmed by immunoblotting; made in house; host or cells: Sf9 or Sf158 insect cells (baculovirus)
# Text: as §1, §2
# protein kinase C η = biological target: T4, protein kinase C η (Homo sapiens, UniProt P24723); test: [3H]PDBu receptor binding assay, protein kinase C η
# T4 construct: Successful full-length expression of each isotype was confirmed by immunoblotting; made in house; host or cells: Sf9 or Sf158 insect cells (baculovirus)
# Text: as §1, §2
# protein kinase C ε = biological target: T5, protein kinase C ε (Homo sapiens, UniProt Q02156); test: [3H]PDBu receptor binding assay, protein kinase C ε
# T5 construct: Successful full-length expression of each isotype was confirmed by immunoblotting; made in house; host or cells: Sf9 or Sf158 insect cells (baculovirus)
# T5 sequence (Q02156 1-737): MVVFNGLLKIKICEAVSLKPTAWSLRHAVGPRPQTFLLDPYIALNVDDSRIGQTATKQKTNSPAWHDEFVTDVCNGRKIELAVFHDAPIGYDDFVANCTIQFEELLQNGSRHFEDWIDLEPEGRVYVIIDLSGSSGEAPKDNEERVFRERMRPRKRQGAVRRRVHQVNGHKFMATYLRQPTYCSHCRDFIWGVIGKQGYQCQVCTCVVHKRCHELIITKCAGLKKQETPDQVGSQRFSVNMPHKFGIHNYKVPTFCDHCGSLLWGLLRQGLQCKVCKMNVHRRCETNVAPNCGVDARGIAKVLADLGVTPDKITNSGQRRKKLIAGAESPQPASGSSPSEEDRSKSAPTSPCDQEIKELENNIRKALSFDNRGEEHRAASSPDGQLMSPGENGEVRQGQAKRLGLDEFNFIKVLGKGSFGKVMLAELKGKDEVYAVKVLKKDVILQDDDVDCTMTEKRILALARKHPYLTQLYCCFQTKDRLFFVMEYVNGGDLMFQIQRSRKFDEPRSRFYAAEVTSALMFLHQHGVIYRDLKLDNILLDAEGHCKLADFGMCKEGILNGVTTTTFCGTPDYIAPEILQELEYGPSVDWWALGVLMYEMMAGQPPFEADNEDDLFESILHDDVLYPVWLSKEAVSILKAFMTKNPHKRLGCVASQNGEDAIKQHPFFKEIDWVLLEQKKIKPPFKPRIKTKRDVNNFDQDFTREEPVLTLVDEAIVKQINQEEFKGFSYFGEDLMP
# Text: as §1, §2
# [1] = test system: phorbol 12-myristate 13-acetate induced ear inflammation/erythema; test: Mouse ear anti-inflammatory test against phorbol 12-myristate 13-acetate; assay type: in vivo, mice
# Protocol: Method: A stock solution of 300 pmoles of the standard inflammatory compound phorbol 12-myristate 13-acetate per 5 μL acetone was prepared. This solution was used to prepare ten-fold dilutions of N^1,14-O-digeranyl-(9S,12S)-indolactam V, prepared as in Example 8, covering concentrations of the latter ranging from 3,500 to 350,000 pmoles per 5 μL.
# protein kinase C γ = biological target: T6, protein kinase C γ (Bos taurus, UniProt P05128); test: [3H]PDBu receptor binding assay, protein kinase C γ
# T6 construct: Successful full-length expression of each isotype was confirmed by immunoblotting; made in house; host or cells: Sf9 or Sf158 insect cells (baculovirus)
# Text: as §1, §2
# human protein kinase Cθ = biological target: T7, human protein kinase Cθ (Homo sapiens, UniProt Q04759); test: [3H]PDBu receptor binding assay, protein kinase C θ
# T7 construct: Successful full-length expression of each isotype was confirmed by immunoblotting; FLAG (from vector pFlag-Mac); made in house; host or cells: E. coli strain DH5
# Text: as §1, §2
# [2] = test system: protein kinase C preparation; details: Irie and Koshimizu 1988; cited from earlier work
# T7 sequence (Q04759 whole entry): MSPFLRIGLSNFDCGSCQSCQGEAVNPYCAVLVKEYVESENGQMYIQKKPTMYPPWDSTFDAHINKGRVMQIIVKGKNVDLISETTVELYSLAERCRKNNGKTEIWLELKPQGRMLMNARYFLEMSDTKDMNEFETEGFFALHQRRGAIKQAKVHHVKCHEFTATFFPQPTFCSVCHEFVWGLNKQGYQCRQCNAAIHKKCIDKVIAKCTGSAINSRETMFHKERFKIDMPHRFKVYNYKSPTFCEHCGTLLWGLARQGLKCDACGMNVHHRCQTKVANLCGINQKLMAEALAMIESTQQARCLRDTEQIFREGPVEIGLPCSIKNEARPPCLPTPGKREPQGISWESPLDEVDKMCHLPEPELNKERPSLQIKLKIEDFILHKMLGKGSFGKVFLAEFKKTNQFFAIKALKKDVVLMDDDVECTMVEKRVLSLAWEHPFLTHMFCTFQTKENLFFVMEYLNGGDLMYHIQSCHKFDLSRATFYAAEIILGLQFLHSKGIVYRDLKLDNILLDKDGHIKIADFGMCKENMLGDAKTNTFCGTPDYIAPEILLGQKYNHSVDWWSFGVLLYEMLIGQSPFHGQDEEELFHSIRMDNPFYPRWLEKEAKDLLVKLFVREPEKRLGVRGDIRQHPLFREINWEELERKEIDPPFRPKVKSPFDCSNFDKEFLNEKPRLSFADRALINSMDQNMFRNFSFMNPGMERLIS
# T1 sequence (Q05655 whole entry): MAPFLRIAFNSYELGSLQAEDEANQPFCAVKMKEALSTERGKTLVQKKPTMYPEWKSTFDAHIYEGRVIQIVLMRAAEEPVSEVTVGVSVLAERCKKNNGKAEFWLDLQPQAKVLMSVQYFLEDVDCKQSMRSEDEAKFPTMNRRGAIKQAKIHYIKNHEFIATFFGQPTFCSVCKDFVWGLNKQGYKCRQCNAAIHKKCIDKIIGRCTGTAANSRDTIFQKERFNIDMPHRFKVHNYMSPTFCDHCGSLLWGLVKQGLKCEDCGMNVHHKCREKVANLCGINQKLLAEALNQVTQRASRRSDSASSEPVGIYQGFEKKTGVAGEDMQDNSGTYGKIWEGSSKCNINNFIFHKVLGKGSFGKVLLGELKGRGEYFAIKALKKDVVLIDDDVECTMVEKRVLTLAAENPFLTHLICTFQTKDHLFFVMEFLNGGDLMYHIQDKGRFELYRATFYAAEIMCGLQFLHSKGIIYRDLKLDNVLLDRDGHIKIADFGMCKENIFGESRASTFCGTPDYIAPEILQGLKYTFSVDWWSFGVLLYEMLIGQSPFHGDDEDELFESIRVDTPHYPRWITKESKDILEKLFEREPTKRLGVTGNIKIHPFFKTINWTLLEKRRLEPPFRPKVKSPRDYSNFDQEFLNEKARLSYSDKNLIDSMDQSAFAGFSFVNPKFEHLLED
# T4 sequence (P24723 whole entry): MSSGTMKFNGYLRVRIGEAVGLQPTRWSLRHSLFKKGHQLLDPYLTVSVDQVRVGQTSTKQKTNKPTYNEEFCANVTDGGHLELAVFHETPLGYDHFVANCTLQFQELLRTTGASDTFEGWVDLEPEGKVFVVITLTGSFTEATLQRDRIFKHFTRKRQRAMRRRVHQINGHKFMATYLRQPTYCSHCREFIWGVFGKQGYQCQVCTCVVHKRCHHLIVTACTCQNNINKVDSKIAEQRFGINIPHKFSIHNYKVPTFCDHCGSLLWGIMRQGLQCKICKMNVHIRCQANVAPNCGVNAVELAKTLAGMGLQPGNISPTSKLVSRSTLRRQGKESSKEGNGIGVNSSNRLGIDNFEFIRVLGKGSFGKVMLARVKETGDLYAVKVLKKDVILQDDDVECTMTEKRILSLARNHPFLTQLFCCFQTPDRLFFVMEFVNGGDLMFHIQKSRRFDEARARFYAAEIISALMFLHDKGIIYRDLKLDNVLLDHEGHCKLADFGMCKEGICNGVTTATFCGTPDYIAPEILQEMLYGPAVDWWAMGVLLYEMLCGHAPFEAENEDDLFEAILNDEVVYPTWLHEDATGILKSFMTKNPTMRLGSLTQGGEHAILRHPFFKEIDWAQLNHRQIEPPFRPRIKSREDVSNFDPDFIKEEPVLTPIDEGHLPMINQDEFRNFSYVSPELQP
molecule,measurement,setting,value
CCCCOC[C@@H]1Cc2c[nH]c3cccc(c23)N(C)[C@@H](C(C)C)C(=O)N1 [(−)-14-O-butylindolactam V],Induction of Epstein-Barr virus early antigen,Raji cells,no induction of the Epstein-Barr virus early antigen in Raji cells could be detected
"CC(C)=CCC/C(C)=C/COC[C@@H]1Cc2cn(C/C=C(\C)CCC=C(C)C)c3cccc(c23)N(C)[C@@H](C(C)C)C(=O)N1 [N^1,14-O-digeranyl-(9S,12S)-indolactam V, N^1,14-O-Digeranyl-(9S,12S)-indolactam V]",Ki,protein kinase C δ,900 nM
same,Ki,protein kinase C μ,500 nM
same,Ki,protein kinase Cα,5900 nM
same,Ki,protein kinase C η,500 nM
same,Ki,protein kinase C ε,300 nM
same,Persistence of inhibition of PMA induced ear inflammation,"[1]; mouse ear, highest concentration (350,000 pmoles per 5 μL), observation to 48 hours",inhibition persisting for the duration of the experiment at the highest concentration
same,Inhibition of phorbol 12-myristate 13-acetate induced ear inflammation/erythema,"[1]; mouse right ear, topical 5 μL acetone, 300 pmoles PMA, test compound 3,500 to 350,000 pmoles per 5 μL, observed 1 to 48 hours",Inhibition of the phorbol 12-myristate 13-acetate induced inflammation was observed at the medium and high concentrations
same,Ki,protein kinase C γ,6500 nM
same,Ki,human protein kinase Cθ,900 nM
"CCCCCCOC[C@@H]1Cc2c[nH]c3cccc(c23)N(C)[C@@H](C(C)C)C(=O)N1 [(−)-O-hexylindolactam V, 14-O-hexyl-(9S,12S)-indolactam V]",Induction of Epstein-Barr virus early antigen,Raji cells,no induction of the Epstein-Barr virus early antigen in Raji cells could be detected
(−)-indolactam V,Inhibition of binding of [3H]PMA to a protein kinase C preparation,[2],very active
same,Induction of Epstein-Barr virus early antigen,Raji cells,very active
"COC[C@@H]1Cc2c[nH]c3cccc(c23)N(C)[C@@H](C(C)C)C(=O)N1 [(−)-14-O-methylindolactam V, 14-O-methyl-(9S,12S)-indolactam V]",Inhibition of binding of [3H]PMA to a protein kinase C preparation,[2],did not measurably inhibit
same,Induction of Epstein-Barr virus early antigen,Raji cells,no induction of the Epstein-Barr virus early antigen in Raji cells could be detected
